Data published in US9200005B2, “Inhibitor compounds of phosphodiesterase type 10A” (AbbVie Deutschland GmbH & Co. KG, priority 2013, dated 2015).
Where a name gives a salt, the structure may show the parent alone.

Key:
[1] = Determination of the microsomal half-life / microsomal clearance, rat liver microsomes; assay type: in vitro ADME; settings: 0.5 μM test substance, 0.25 mg of microsomal protein/mL, NADPH, 37° C.
How it was run: (§1)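 Compound (0.5 μM) was preincubated 5 min at 37 °C with rat or human liver microsomes (0.25 mg protein/mL) in 0.05 M phosphate pH 7.4, and NADPH (1 mg/mL) was then added. Samples taken at 0-30 min and quenched with acetonitrile were analysed by MS/MS. T½ was derived assuming first-order decay, and clearance […] was calculated from T½ and protein content.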

PDE10A = PDE10A (UniProt Q9Y233); experiment: Measurement of PDE activity (HTRF cAMP kit, recombinant PDE10A); assay type: biochemical, human, rat and mouse; settings: substrate 20 nM, 60 minutes at 29° C.
Experimental: a) Measurement of PDE Activity
The recombinant PDE proteins are used in in vitro enzymatic reaction for measurement of PDE activity. These recombinant proteins, including PDE10A (human, rat and mouse PDE10) and isoforms of PDEs 1, 3, 4, and 5, were purchased from commercial vendor BPS Bioscience. The enzymatic activity of PDEs was determined by cAMP measurement kit from CisBio (IBA) using HTRF technology.
The PDE enzymatic reaction was carried out in assay buffer (20 mM Tris-HCl pH 7.5, 10 mM MgCl2, 0.1% bovine serum albumin) containing enzyme and substrate. […] The substrate cyclic nucleotide (cAMP or cGMP) concentration used in the assay was 20 nM for PDE10, and 100 nM for other PDEs. The inhibitory effect of compound was determined by incubating various concentration of inhibitor in the enzymatic assay. […] Next, the compound at varying concentration was mixed with PDE enzyme. The reaction was initiated by addition of cyclic nucleotide substrate, and incubated for 60 minutes at 29° C. The reaction was stopped by addition of lysis buffer from the assay kit. The cAMP-d2 and anti-cAMP cryptate in the lysis buffer detected the level of cAMP left from the PDE hydrolysis reaction. […] Thus, IC50 value of inhibitor can be obtained by plotting inhibitor concentration against PDE activity at that concentration.

[2] = Determination of the microsomal half-life / microsomal clearance, human liver microsomes; assay type: in vitro ADME; settings: 0.5 μM test substance, 0.25 mg of microsomal protein/mL, NADPH, 37° C.
How it was run: as §1

| Rat mCl [1] | IC50 (PDE10A) [nM] | Human mCl [2] | IC50 (PDE10A; (hydrochloride salt)) [nM] | SMILES |
| --- | --- | --- | --- | --- |
| + (+: 100-220 μl min^−1 mg^−1) | < 100 | + (+: 100-220 μl min^−1 mg^−1) | – | Cn1nc(OCc2cccnc2)c2scc(-c3ccncc3)c2c1=O [Example 147, 5-methyl-3-(pyridin-4-yl)-7-(pyridin-3-ylmethoxy)thieno[2,3-d]pyridazin-4(5H)-one] |
| ++ (++: <100 μl min^−1 mg^−1) | < 100 | + (+: 100-220 μl min^−1 mg^−1) | – | COc1cc(OC)cc(Oc2nn(C)c(=O)c3c(-c4ccncc4)csc23)c1 [Example 92, 7-(3,5-dimethoxyphenoxy)-5-methyl-3-(pyridin-4-yl)thieno[2,3-d]pyridazin-4(5H)-one] |
| + (+: 100-220 μl min^−1 mg^−1) | 200 to 500 | ++ (++: <100 μl min^−1 mg^−1) | – | Cn1nc(-c2ccncc2)c2scc(NC3COC3)c2c1=O [Example 2, 5-methyl-3-(oxetan-3-ylamino)-7-(pyridin-4-yl)thieno[2,3-d]pyridazin-4(5H)-one] |
| ++ (++: <100 μl min^−1 mg^−1) | < 100 | ++ (++: <100 μl min^−1 mg^−1) | – | CCn1nc(-c2ccncc2)c2scc(-c3ccncc3)c2c1=O [Example 136, 5-ethyl-3,7-di(pyridin-4-yl)thieno[2,3-d]pyridazin-4(5H)-one] |
| ++ (++: <100 μl min^−1 mg^−1) | < 100 | + (+: 100-220 μl min^−1 mg^−1) | – | COc1cc(COc2nn(C)c(=O)c3c(-c4ccncc4)csc23)cc(OC)c1 [Example 75, 7-[(3,5-dimethoxybenzyl)oxy]-5-methyl-3-(pyridin-4-yl)thieno[2,3-d]pyridazin-4(5H)-one] |
| ++ (++: <100 μl min^−1 mg^−1) | – | ++ (++: <100 μl min^−1 mg^−1) | 100 to 200 | Cn1nc(-c2ccncc2)c2scc(-c3cncnc3)c2c1=O [Example 11, 5-methyl-7-(pyridin-4-yl)-3-(pyrimidin-5-yl)thieno[2,3-d]pyridazin-4(5H)-one (hydrochloride salt)] |
| + (+: 100-220 μl min^−1 mg^−1) | < 100 | ++ (++: <100 μl min^−1 mg^−1) | – | CC(Oc1nn(C)c(=O)c2c(-c3ccncc3)csc12)c1nc2ccccc2n1C (stereo not drawn) [Example 78, 5-methyl-7-[1-(1-methyl-1H-benzimidazol-2-yl)ethoxy]-3-(pyridin-4-yl)thieno[2,3-d]pyridazin-4(5H)-one] |
| ++ (++: <100 μl min^−1 mg^−1) | 200 to 500 | ++ (++: <100 μl min^−1 mg^−1) | – | Cc1ncc(-c2csc3c(-c4ccncc4)nn(CC(F)(F)F)c(=O)c23)cn1 [Example 128, 3-(2-methylpyrimidin-5-yl)-7-(pyridin-4-yl)-5-(2,2,2-trifluoroethyl)thieno[2,3-d]pyridazin-4(5H)-one] |
| ++ (++: <100 μl min^−1 mg^−1) | 100 to 200 | ++ (++: <100 μl min^−1 mg^−1) | – | Cn1nc(OCc2coc3ccccc23)c2scc(-c3ccncc3)c2c1=O [Example 63, 7-(1-benzofuran-3-ylmethoxy)-5-methyl-3-(pyridin-4-yl)thieno[2,3-d]pyridazin-4(5H)-one] |
| + (+: 100-220 μl min^−1 mg^−1) | 100 to 200 | ++ (++: <100 μl min^−1 mg^−1) | – | COc1cccc(COc2nn(C)c(=O)c3c(-c4ccncc4)csc23)c1 [Example 61, 7-[(3-methoxybenzyl)oxy]-5-methyl-3-(pyridin-4-yl)thieno[2,3-d]pyridazin-4(5H)-one] |

| SMILES | Rat mCl [1] | IC50 (PDE10A) [nM] | Human mCl [2] | IC50 (PDE10A; (hydrochloride salt)) [nM] |
| --- | --- | --- | --- | --- |
| COc1cccc(-c2nn(C)c(=O)c3c(-c4ccncc4)csc23)c1 [Example 123, 7-(3-methoxyphenyl)-5-methyl-3-(pyridin-4-yl)thieno[2,3-d]pyridazin-4(5H)-one] | ∘ (∘ not avialable or >220 μl min^−1 mg^−1) | 100 to 200 | + (+: 100-220 μl min^−1 mg^−1) | – |
